{
  "source": "patent US8948863B2",
  "about": "“Photokinetic ocular drug delivery methods and apparatus” (priority 2009, dated 2015)",
  "key": {"[1]": {"assay": "Franz cell sclera tissue permeation, PODD (pulsed LED light) vs passive controls", "conditions": "for levels of MTX recovered from Franz recipient cell: p<0.05 vs passive controls", "description": "A traditional “up and down” vertical Franz cell skin perfusion apparatus as described above was adapted and used for this sclera tissue permeation model. […] Two wavelengths of light were selected of this facilitated permeation study. Samples of the Franz recipient solution were taken at 15, 30 and 60 minutes of photokinetic exposure and passive controls and analyzed by HPLC.\nFranz cells (PermeGear, Inc, Bethlehem Pa.) having an 11.28 mm diameter permeation area, 1.0 cm^2 were used in the MTX experiment. A photokinetic ocular drug delivery (PODD)-modified Franz cell testing device was configured so that it accommodated the placement of LEDs within the donor chamber. The cells were placed within an aluminum block heater 35.5° C. on a magnetic stir bar setup (Custom manufactured by PermeGear, Inc, Bethlehem Pa.).\nDiscrete wavelength LEDs were purchased from Roithner Lasertechnick GmbH, Vienna, Austria as follows: 351 nm, #RTL350-30; 370 nm, #RLS-UV370. Peak emitting wavelengths are ±10 nm at the 50% radiance output. The LEDs were driven by a square wave pulse generator built by the investigators for this study. The adjustable square wave pulse generator provided pulsed electrical energy set at 24 cycles per second (CPS) with a 50% pulse duration (ON 50%, OFF 50% of the time). Driver current to the LEDs was limited to or slightly below the manufacturers specified drive current level to avoid exogenous heat generation. […] A donor cell contains the test drug (in this example, methotrexate (MTX)) in a solvent formulation. The recipient cell is filled with a balance salt solution. Samples for chemical analysis are taken from the side arm 27 of the Franz apparatus as discussed above. Control cells are set up the same, but without the LED. LEDs are driven by a square wave pulse generator (not shown) at a voltage slightly less than the manufacture's specified voltage.\nOvine eyes were procured by enucleation within one hour after euthanasia and placed in tissue culture medium with antibiotics and antimycotics and refrigerated at 4° C. Sclera tissue was dissected from the eyes and placed between the donor and recipient chambers of the Franz apparatus. Sclera was stored for a maximum of 30 hours in the tissue culture at 4° C. before the start of the experiment.\nMethotrexate (MTX; (4-Amino-10-methylfolic acid hydrate); available from Sigma-Aldrich Corp., St. Louis, Mo.) was dissolved in a permeation enhancement carrier of water, 30% propylene glycol, 5% Ethyl Lactate, 0.1% Azone, and 0.75% hyaluronic acid as a gelling agent, with 0.1% neolone 850 as a preservative. An infinite donor sink model was used wherein 0.75 grams of the drug formulation (1.875 mg of each) was placed in the Franz donor cells. Hanks isotonic salt solution served as the Franz recipient cell fluid.\nHPLC analysis was performed according to a method developed in our lab. Briefly, a Beckman Coulter system consisting of 125 pumps, 508 auto sampler and 168 diode array detector was used with an XTerra RP-C18, 150×40 mm, 3 μm column. The analytes were eluted with a gradient mobile phase from 25-30% Methanol in HPLC grade water with 0.1% Trifluoroacetic Acid (TFA) and flow rate of 0.7 ml/min. 32 Karat™ software (Beckman Coulter, Inc.) was used for acquisition of chromatograms.\nThe Franz recipient cell balanced salt solution was analyzed by the HPLC method for MTX concentration."}, "[2]": {"assay": "Histological examination of Franz cell mounted sclera after PODD exposure", "parameters": "species or system ovine", "conditions": "MTX formulation, 60 minute exposure, 350 nm LED light", "procedure": "Sclera samples were taken and placed in formalin as follows: Normal control sclera with no exposure to drug or light, Franz cell 60 minute control drug only exposure and Franz cell 60 minute exposure to both drug and 350 nm LED light. Fixed slides were evaluated for structural integrity and gross appearance by a pathologist blinded as to the origin of the sample tissue.\nNormal control sclera with no exposure to drug or light, Franz cell 60 minute control drug only exposure and Franz cell 60 minute exposure to both drug and 350 nm LED light were taken and placed in formalin. Fixed slides were evaluated for structural integrity and gross appearance by a pathologist masked as to the origin of the sample tissue."}, "[3]": {"assay": "Photokinetic transdermal permeation study", "assay_type": "in vitro ADME, human", "conditions": "similar photokinetic conditions", "source_text": "Scleral tissue is more permeable than human skin. The practical upper molecular weight limit with the PODD system is unknown and may be determined by the specific molecular configuration rather than molecular weight per se."}, "[4]": {"conditions": "rabbit", "excerpt": "Exogenous human insulin can be differentiated from the endogenous rabbit insulin; the human insulin FITC (fluorescein isothiocyanate) fluorescent tag further allows for tracking of the drug within the tissues.\nIn this series, rabbits were fitted with transscleral photokinetic device, such as shown in FIG. 1 of this disclosure, for one hour. […] Images were taken of the posterior optic disc, the area where the retina, optic nerve and blood vessels come together on the posterior segment of the eye."}},
  "data": [
    {"compound": "CN(Cc1cnc2nc(N)nc(N)c2n1)c1ccc(C(=O)N[C@@H](CCC(=O)O)C(=O)O)cc1", "note": "[MTX, 4-Amino-10-methylfolic acid hydrate]", "values": [
      {"measurement": "levels of MTX recovered from Franz recipient cell", "setting": "[1]; PODD 350 nm group, 24 CPS, 30 and 60 minute time points", "value": "significant"},
      {"measurement": "levels of MTX recovered from Franz recipient cell", "setting": "[1]; PODD 370 nm group, 24 CPS, 15, 30 and 60 minute time points", "value": "significant"},
      {"measurement": "total MTX flux (compared with the therapeutic level)", "setting": "[1]; PODD, up to 60 minutes, 1.0 cm^2 ovine sclera", "value": "< 400", "unit": "µg"},
      {"measurement": "flux rate, 370 nm group compared to the 350 nm group", "setting": "[1]; all time points (15, 30, 60 minutes), 24 CPS", "value": "much higher flux rate"},
      {"measurement": "MTX permeation through the scleral tissue, PODD cells", "setting": "[1]; both wavelengths of light tested (350 nm and 370 nm), 24 CPS, vs passive controls", "value": "improvement"},
      {"measurement": "histological examination, PODD exposure compared to passive control and normal sclera", "setting": "[2]", "value": "no differences between the samples"},
      {"measurement": "structural integrity of the sclera", "setting": "[2]", "value": "grossly intact and undamaged"}
    ]},
    {"compound": "hyaluronic acid", "values": [
      {"measurement": "flux rates through intact human skin", "setting": "[3]", "value": "significant flux rates"}
    ]},
    {"compound": "FITC-labeled human insulin: human insulin modified at the N-terminus of the B-chain with an FITC conjugate/tag, 5733 Daltons, Invitrogen", "values": [
      {"measurement": "fluorescence in the optic disc, passive permeation", "setting": "[4]", "value": "did not show fluorescence"},
      {"measurement": "fluorescence image of the optic disc after 1 hour of PODD", "setting": "[4]; in vivo", "value": "reached the posterior segment of the rabbit's eye"},
      {"measurement": "fluorescence, contralateral eye", "setting": "[4]; in vivo", "value": "no fluorescence"}
    ]}
  ]
}
